Legend:
Porcine Rotavirus [1] = test: Virucidal effect on porcine rotavirus in primary pig kidney cells; assay type: cell-based; settings: total carboxylic acid concentration of 200 mM; for Result Replicate 2: controls PBS −5, ETHANOL −4; for Result Replicate 3: controls PBS −5, ETHANOL −5
Description: (§1) Carboxylic acids were obtained from David Garnett of Pathway Intermediates Ltd or from Sigma-Aldrich Co. LLC; and compositions were prepared in a Class II cabinet at room temperature in Hank's Balanced Salt Solution (Thermo Fisher Scientific Inc.) or ethanol by vortexing strongly to emulsify at a stock concentration of 1M. Stock concentrations were diluted to working concentrations e.g. of […] by serial dilution using Minimum Essential Medium (MEM) cell culture medium (Thermo Fisher Scientific Inc.) containing 2 mM L-Glutamine (Gibco Life Technologies Ltd.), and 100 μg/500 ml gentamycin (Lonza Group Ltd.).
A primary pig kidney (PPK) cell line was sourced from a kidney of a sacrificed piglet from the Agri-Food and Biosciences Institute (AFBI Hillsborough, UK). The kidney tissue was trypsinised to create a PPK cell line, which was maintained in Minimum Essential Medium (MEM) cell culture medium (Thermo Fisher Scientific Inc.) containing 2 mM L-Glutamine (Gibco Life Technologies Ltd.), 10% foetal calf serum (PAN-Biotech GmbH), and 100 μg/500 ml gentamycin (Lonza Group Ltd.).
(§2) In general, cells were seeded as at a density of 0.313e4-5.000e4 cells per 1 ml of cell suspension in growth medium, dispensed in to a SPL 24-Well Cell Culture Plate (SPL Life Sciences Co., Ltd.) in replicates of 3, each containing Academy Circular Cover Slips (Academy Science) and incubated overnight at 37° C. at 5% CO2. The growth medium was removed and replaced with 1 ml of Minimum Essential Medium (MEM) cell culture medium (Thermo Fisher Scientific Inc.) containing 2 mM L-Glutamine (Gibco Life Technologies Ltd.), and 100 μg/500 ml gentamycin (Lonza Group Ltd.) for treatment.
(§3) Porcine rotavirus was PROSYSTEM® ROTA PORCINE ROTAVIRUS VACCINE (Merck Animal Health).
Prior to treatment, the cells and coverslips were washed three times with Minimum Essential Medium (MEM) cell culture medium (Thermo Fisher Scientific Inc.) containing 2 mM L-Glutamine (Gibco Life Technologies Ltd.), and 100 μg/500 ml gentamycin (Lonza Group Ltd.). 100 μl of the virus at a titre of 10^9 TCID50/100 μl by the Reed-Muench method, and 100 μl of the treatment samples, were incubated for 30 mins at 37° C. at 5% CO2 The reaction was stopped by adding 800 μl of Minimum Essential Medium (MEM) cell culture medium (Thermo Fisher Scientific Inc.) containing 2 mM L-Glutamine (Gibco Life Technologies Ltd.), and 100 μg/500 ml gentamycin (Lonza Group Ltd.). Each treatment/virus was titrated out, initially 100 μl of each treatment was added to 900 μls of Minimum Essential Medium (MEM) cell culture medium (Thermo Fisher Scientific Inc.) containing 2 mM L-Glutamine (Gibco Life Technologies Ltd.), and 100 μg/500 ml gentamycin (Lonza Group Ltd.) to prepare a 10^−1 dilution. The 10^−1 dilution was then diluted in serial dilutions down to 10^−6 in the same medium 100 μl of media was then added to each appropriate well in replicates of 3 and incubated for 36 hours at 37° C. at 5% CO2 Ethanol or PBS were used as control treatments. Untreated cells were used as negative controls.
After incubation, coverslips were harvested. Each slip was harvested by lifting out of the medium with forceps then rinsing and fixing by dipping sequentially into glass universal bottles of PBS, acetone, and lastly acetone. The slip was then placed cells side up in a glass Petri dish of acetone in a Class II cabinet at room temperature for 10 minutes. […]

Porcine Rotavirus [2] = test: Virucidal effect on porcine rotavirus in MA104 cells; assay type: cell-based; settings: for Titre: incubation 30 mins, DMSO ✓, control titres ETOH −4, PBS −4
Description: as §1
(§4) MA104 cells were obtained from ECACC and were maintained in Minimum Essential Medium (MEM) cell culture medium (Thermo Fisher Scientific Inc.) containing 2 mM L-Glutamine (Gibco Life Technologies Ltd.), 10% foetal calf serum (PAN-Biotech GmbH), and 100 μg/500 ml gentamycin (Lonza Group Ltd.).
as §2, §3
Prior to treatment, the cells and coverslips were washed three times with Minimum Essential Medium (MEM) cell culture medium (Thermo Fisher Scientific Inc.) containing 2 mM L-Glutamine (Gibco Life Technologies Ltd.), and 100 μg/500 ml gentamycin (Lonza Group Ltd.). […]

[3] = test system: porcine circovirus (PCV2); test: Virucidal effect on PCV2 in PK15A cells; assay type: cell-based, Porcine circovirus type 2; settings: at either 100 or 200 mM
[4] = test system: Porcine Respiratory and Reproductive Syndrome Virus (PRRSV); test: Virucidal effect on PRRSV, virus/treatment titration read by immunofluorescence; assay type: cell-based; settings: 200 mM
Description: as §1
as §4, with “MARC145” for “MA104”, “the Centre of Cell Cultures, Istituto Zooprofilattico Sperimentale Brescia, Italy” for “ECACC”
(§5) In general, cells were seeded as at a density of 0.313e4-5.000e4 cells per 1 ml of cell suspension in growth medium, dispensed in to a SPL 24-Well Cell Culture Plate (SPL Life Sciences Co., Ltd.) in replicates of 3, each containing Academy Circular Cover Slips (Academy Science) and incubated overnight at 37° C. at 5% CO2. […]

[5] = test system: infectious bovine rhinotracheitis virus (IBRV); test: Virucidal effect on IBRV, virus/treatment titration read by immunofluorescence; assay type: cell-based, Infectious bovine rhinotracheitis virus (Bovine Herpes 1); settings: 100 mM
Description: as §1
as §4, with “MDBK” for “MA104”, “GmbH),” for “GmbH), and”, “Ltd.), and 1% essential non essential amino acids (Sigma-Aldrich Co. LLC.).” for “Ltd.).”
as §5

SMILES	Result Replicate 2 (Porcine Rotavirus [1])	Result Replicate 3 (Porcine Rotavirus [1])	reduction in titre (Porcine Rotavirus [2]; 200 mM)	Titre (Porcine Rotavirus [2]; Expt 1, FA conc 100 mM)	Titre (Porcine Rotavirus [2]; Expt 2, FA conc 200 mM)	susceptibility of virus to treatment [3]	reduction in titre [4]	reduction in titre [5]
CCCCCCCCCCCC(=O)O [Dodecanoic acid/Lauric C12 (1M), Dodecanoic acid]	−ve	−1						
CCCCCCCC(=O)O [Octanonic Acid/Caprylic C8 (1M), octanoic acid]	−2	−1						
CCCC(=O)O [Butyric Acid C4 (1M), Butyric Acid]	−ve	−ve						
CCCCCCCCCC(=O)O [Decanoic Acid/Capric C10 (1M), Decanoic Acid]	−1	−ve						
CCCC(=O)[O-].[Na+] [Treatment A, Sodium butyrate]			2 log 10	−4	−2	not susceptible	3.5 log10	4 log10

From US11344523B2, “Composition for use in treating rotavirus infection” (Devenish Nutrition Limited, priority 2016, dated 2022)
